According to patent publication US4388320A, “3-Aminopropoxyaryl derivative in the treatment of tremor” (Sandoz Ltd., priority 1981, dated 1983):
Entries after “also recorded” stand apart in the source; their conditions may differ.

Experiments:
[1] = known use; cited from earlier work
acute toxicity, rabbit = settings: in vivo, hydrogen malonate form
Source text: (§1) The tolerability of the compound was also studied using standard tests. For example, the acute toxicity of the compound of formula I in hydrogen malonate form is as follows: […]

[2] = tolerability and comparison with other agents in anti-tremor use; format: in vivo, patients
[3] = first clinical study, 6 patients with constant essential (familiary) tremor, 4 weeks (Table 1); format: in vivo
Protocol: In one clinical study 6 patients with constant essential (familiary) tremor were given for 4 weeks once-a-day in the morning a capsule containing 1 to 8 mg of the compound of formula I in hydrogen malonate form. The dosage was increased gradually over the first two weeks of the study.

[4] = system: lipolysis and glycogenolysis induced by isoproterenol; settings: U.K. Patent Specification No. 1,575,510; cited from earlier work
acute toxicity, mouse = settings: in vivo, hydrogen malonate form
Source text: as §1

[5] = further, similar clinical study, 4 patients with essential (familiary) tremor (Table 2); format: in vivo; settings: 1 to 12 mg per day
Protocol: The result of a further, similar study with 4 patients with essential (familiary) tremor treated for 4 weeks with 1 to 12 mg per day of the compound of formula I in hydrogen malonate form is indicated in table 2: […]

[6] = clinical observations, treatment of tremor (overall); format: in vivo, patients
adrenergic β-receptors = settings: U.K. Patent Specification No. 1,575,510; cited from earlier work
acute toxicity, rat = settings: in vivo, hydrogen malonate form
Source text: as §1

[7] = U.K. Patent Specification No. 1,575,510; cited from earlier work
[8] = another clinical study, 6 patients with essential (familiary) tremor (Table 3); format: in vivo; settings: 4 to 12 mg per day
[9] = after 2 weeks, total 6 patients, capsule once-a-day, 1 to 8 mg, hydrogen malonate form
[10] = after 4 weeks, total 6 patients, capsule once-a-day, 1 to 8 mg, hydrogen malonate form
[11] = 4 patients, 4 weeks, hydrogen malonate form
[12] = 6 patients, 4 weeks, hydrogen malonate form

CC(C)NCC(O)COc1cccc2ccccc12 (stereo not shown) [propranolol]
activity against tremor [1]: conflicting results

C=CCc1ccccc1OCC(O)CNC(C)C (stereo not shown) [alprenolol]
activity against tremor [1]: inactive

CC(C)(C)NC[C@H](O)COc1nsnc1N1CCOCC1 [timolol]
activity against tremor [1]: inactive

Cc1cc2c(OCC(CNC(C)(C)C)OC(=O)c3ccccc3)cccc2[nH]1 (stereo not shown) [compound of formula I, 4(2-benzoyloxy-3-tert-butylaminopropoxy)-2-methylindole]
LD50 (acute toxicity, rabbit; iv, read-out: LD50 i.v.): 7 mg/kg
LD50 (acute toxicity, rabbit; po, read-out: LD50 p.o.): 334 mg/kg
hypotension or bradycardia ([2]; in vivo): not induce hypotension or bradycardia
influence on P-Q wave in the electrocardiogramm ([2]; in vivo): does not significantly influence the P-Q wave
overall safety ([2]; in vivo): exceptionally safe
effect on blood pressure and heart rate ([2]; patients with underlying hypertension or tachycardia): normalization of blood pressure and heart rate
onset of anti-tremor activity compared with anticholinergics ([2]; versus anticholinergics): more rapid onset of activity
tolerability compared with anticholinergics ([2]; versus anticholinergics): better tolerated than anticholinergics
tolerability compared with other β-adrenoceptor blocking agents ([2]; versus e.g. propranolol): better tolerated than other β-adrenoceptor blocking agents, e.g. propranolol
improvement in tremor, benefit (in words) ([3]; 6 patients, 4 weeks, 1 to 8 mg once-a-day): all patients gained benefit; also recorded: the degree of improvement was either marked or moderate
Number of patients with marked (Ma) improvement after 2 weeks [3, 9]: 2 patients
Number of patients with moderate (Mo) improvement after 2 weeks [3, 9]: 4 patients
Number of patients with marked (Ma) improvement after 4 weeks [3, 10]: 3 patients
Number of patients with moderate (Mo) improvement after 4 weeks [3, 10]: 3 patients
hypotension and bradycardia ([3]; during treatment): No hypotension and no bradycardia
side effects ([3]; during treatment): remarkably free of side effects
duration of beneficial effect ([3]; once-a-day in the morning): the beneficial effect lasted the whole day
inhibition of lipolysis and glycogenolysis [4]: inhibit lipolysis and glycogenolysis induced by isoproterenol
LD50 (acute toxicity, mouse; iv, read-out: LD50 i.v.): 11 mg/kg
LD50 (acute toxicity, mouse; po, read-out: LD50 p.o.): 242 mg/kg
hypotension and bradycardia [5]: no hypotension and no bradycardia
side effects [5]: exceptionally few side effects
time to first observed improvement [5]: already after one week of treatment
time to maximum improvement [5]: 2 weeks
improvement (in words) ([5]; 4 patients, 4 weeks): marked improvement was observed in all 4 patients
Number of patients showing good improvement [5, 11]: 2 patients
Number of patients showing very good improvement [5, 11]: 2 patients
usefulness / improvement in treatment of tremor (in words) [6]: impressive improvement; also recorded: useful in the treatment of tremor, especially of essential (familiary) tremor
blocking effect on the adrenergic β-receptors (adrenergic β-receptors): blocking effect on the adrenergic β-receptors
LD50 (acute toxicity, rat; iv, read-out: LD50 i.v.): 9 mg/kg
LD50 (acute toxicity, rat; po, read-out: LD50 p.o.): 1010 mg/kg
antiarrhythmic effect [7]: antiarrhythmic effect
hypotension and bradycardia [8]: no hypotension and no bradycardia
improvement (in words) ([8]; 6 patients, 4 weeks): These results were confirmed; also recorded: very good or good improvement was observed in all patients
Number of patients showing good improvement [8, 12]: 3 patients
Number of patients showing very good improvement [8, 12]: 3 patients

C=CCOc1ccccc1OCC(O)CNC(C)C (stereo not shown) [oxprenolol]
activity against tremor [1]: inactive
